Measurements reported in patent US11279681B2, “3-alkyl bicyclic [4,5,0] hydroxamic acids as HDAC inhibitors” (Valo Health, Inc., priority 2015, dated 2022).

Molecular target: T1, HDAC6 (Homo sapiens, UniProt Q9UBN7)
T1 sequence (Q9UBN7 1-1215): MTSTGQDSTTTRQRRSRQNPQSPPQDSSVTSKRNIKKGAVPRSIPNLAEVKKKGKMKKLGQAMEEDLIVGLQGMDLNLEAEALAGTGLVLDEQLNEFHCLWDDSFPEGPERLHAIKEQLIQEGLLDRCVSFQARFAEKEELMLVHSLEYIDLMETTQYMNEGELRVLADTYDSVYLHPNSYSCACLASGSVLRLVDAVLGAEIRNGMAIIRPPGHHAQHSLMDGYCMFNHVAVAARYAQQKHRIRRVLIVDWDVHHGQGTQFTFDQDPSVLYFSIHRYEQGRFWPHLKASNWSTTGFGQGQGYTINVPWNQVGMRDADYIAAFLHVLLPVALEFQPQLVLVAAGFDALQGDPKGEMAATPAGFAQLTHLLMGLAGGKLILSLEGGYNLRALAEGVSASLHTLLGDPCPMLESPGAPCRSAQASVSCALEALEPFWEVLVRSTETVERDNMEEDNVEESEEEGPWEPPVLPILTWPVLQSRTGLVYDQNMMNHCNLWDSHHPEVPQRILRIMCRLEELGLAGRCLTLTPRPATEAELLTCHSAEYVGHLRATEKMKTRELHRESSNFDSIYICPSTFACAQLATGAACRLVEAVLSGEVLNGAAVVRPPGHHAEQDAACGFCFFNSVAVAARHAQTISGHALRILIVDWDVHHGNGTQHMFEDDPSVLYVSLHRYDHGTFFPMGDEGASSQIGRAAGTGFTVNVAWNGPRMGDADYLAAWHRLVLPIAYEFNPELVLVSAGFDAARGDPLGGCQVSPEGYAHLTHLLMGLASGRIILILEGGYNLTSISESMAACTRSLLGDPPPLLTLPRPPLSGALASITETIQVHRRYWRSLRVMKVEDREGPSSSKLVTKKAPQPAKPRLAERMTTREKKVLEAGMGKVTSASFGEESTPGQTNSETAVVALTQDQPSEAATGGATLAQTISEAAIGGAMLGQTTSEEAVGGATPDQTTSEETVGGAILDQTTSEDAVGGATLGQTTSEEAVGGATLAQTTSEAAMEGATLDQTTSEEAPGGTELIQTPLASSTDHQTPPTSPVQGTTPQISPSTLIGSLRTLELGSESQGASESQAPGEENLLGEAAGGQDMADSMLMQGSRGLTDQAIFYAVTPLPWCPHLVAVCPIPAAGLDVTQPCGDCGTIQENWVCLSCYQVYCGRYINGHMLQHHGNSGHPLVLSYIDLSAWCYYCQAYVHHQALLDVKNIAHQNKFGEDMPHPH
Assay: In vitro histone deacetylase assay: enzymatic HDAC6 electrophoretic mobility shift assay
Assay type: biochemical
Details: full length human recombinant HDAC6, 1 nM enzyme, 2 μM peptide substrate RHKK(Ac)-NH2, 25° C.; read-out: Inhibitory Concentration (IC50) Values for Representative Compounds against HDAC6, Activity Range

IC50, ≤ 0.1 µM:
C[C@H]1COc2cc(C(=O)NO)ccc2CN1C(=O)OC1CCCCC1 [cyclohexyl(S)-8-(hydroxycarbamoyl)-3-methyl-2,3-dihydrobenzo[f][1,4]oxazepine-4(5H)-carboxylate]
C[C@H]1COc2cc(C(=O)NO)ccc2CN1C(=O)OC1CCCC1 [cyclopentyl(S)-8-(hydroxycarbamoyl)-3-methyl-2,3-dihydrobenzo[f][1,4]oxazepine-4(5H)-carboxylate]
CCOC(=O)N1Cc2ccc(C(=O)NO)cc2OC[C@@H]1C [ethyl(S)-8-(hydroxycarbamoyl)-3-methyl-2,3-dihydrobenzo[f][1,4]oxazepine-4(5H)-carboxylate]
CC(C)OC(=O)N1Cc2ccc(C(=O)NO)cc2OC[C@@H]1C [isopropyl(S)-8-(hydroxycarbamoyl)-3-methyl-2,3-dihydrobenzo[f][1,4]oxazepine-4(5H)-carboxylate]
COC(=O)N1Cc2ccc(C(=O)NO)cc2OC[C@@H]1C [methyl(S)-8-(hydroxycarbamoyl)-3-methyl-2,3-dihydrobenzo[f][1,4]oxazepine-4(5H)-carboxylate]
C[C@H]1COc2cc(C(=O)NO)ccc2CN1C(=O)OC1CCOCC1 [tetrahydro-2H-pyran-4-yl(S)-8-(hydroxycarbamoyl)-3-methyl-2,3-dihydrobenzo[f][1,4]oxazepine-4(5H)-carboxylate]
